Source: article PMC12133574 (Nature Immunology, 2025)
pEC50: −log10 of the molar value. Read-outs that look alike come from different tables or passages of the source.

Assays:
[1] = test system: activated human T cells (proliferation); assay: cells; format: cell-based; settings: for pEC50: Homo sapiens, T-cell; for effect of the substance on T cell proliferation: activated human T cells; for restoration of adenosine-mediated inhibition of T cell proliferation: uridine, cytidine all 30 µM
[2] = test system: pyrimidine and purine metabolites in activated human T cells; format: cell-based; settings: 24 h; for levels of UMP, UDP, UTP and CTP (metabolites downstream of UMPS) / levels of carbamoyl aspartate, DHO and orotate: adenosine-exposed activated human T cells
[3] = test system: activated human T cells (viability); format: cell-based; settings: for effect of the substance on T cell viability: activated human T cells
[4] = test system: TNF production by activated human T cells; format: cell-based
[5] = test system: NLVPMVATV-specific CD8^+ T cells in PBMCs; assay: CMV pp65 antigen recall assay, tetramer staining; format: cell-based, human; settings: in the presence of ATP (300 µM); EOS301984 300 nM, anti-PD-1 10 µg ml^-1; representative donor
[6] = test system: NLVPMVATV peptide-pulsed T2 cells; assay: Antigen-specific cell killing assay; format: cell-based, human
[7] = test system: IFNγ production by activated human T cells; format: cell-based
[8] = test system: mitochondrial respiration of activated human T cells; format: cell-based
[9] = test system: PD-1^+TIM-3^+CD39^+ CD8^+ TILs from NSCLC; format: cell-based, human; settings: ex vivo stimulated PD-1^+TIM-3^+CD39^+ CD8^+ T cells, adenosine 100 µM, EOS301984 300 nM
[10] = test system: activated human T cells; assay: [3H]adenosine uptake assay; format: cell-based; settings: dilazep 1 µM, one value per donor
[11] = in the presence of 100 µM adenosine, 72 h activation

Nc1ncnc2nc(-c3ccc(N4CCOCC4)nc3)cc(-c3cccc(Br)c3)c12 [ABT-702, 4-amino-5-(3-bromophenyl)-7-(6-morpholino-pyridin-3-yl)pyrido[2,3-d]pyrimidine, reference compound]
pEC50 ([1]; read-out: EC50, rescue of activated CD8^+ T cell proliferation): 7.62 | levels of UMP, UDP, UTP and CTP (metabolites downstream of UMPS) [2]: restored pyrimidine metabolism

Nc1ncnc2c1ncn2[C@@H]1O[C@H](COP(=O)(O)OP(=O)(O)OP(=O)(O)O)[C@@H](O)[C@H]1O [ATP]
effect of the substance on T cell viability [3]: suppressed | effect of the substance on TNF production [4]: suppressed | effect of the substance on T cell proliferation [1]: suppressed | Tet^+ of CD8^+ T cells [5]: profound suppression | antigen-specific killing by the PBMC population ([6]; ATP present during the expansion phase): reduced

Nc1ncnc2c1ncn2[C@@H]1O[C@H](CO)[C@@H](O)[C@H]1O [Adenosine, adenosine]
effect of the substance on IFNγ production ([7]; activated human T cells): inhibited | effect of the substance on T cell viability [3]: loss of viability | effect of the substance on TNF production [4]: inhibited | effect of the substance on T cell proliferation [1]: inhibited | mitochondrial respiration (OCR) [8]: reduced | levels of UMP, UDP, UTP and CTP (metabolites downstream of UMPS) [2]: dose-dependently depleted | levels of carbamoyl aspartate, DHO and orotate [2]: increase | levels of adenosine metabolites (purines) ([2]; adenosine-treated versus DMSO-treated T cells): Dose-dependent increases | fraction of cells producing IFNγ and granzyme B [9]: suppressed

COc1cc(C(=O)OCCCN2CCCN(CCCOC(=O)c3cc(OC)c(OC)c(OC)c3)CC2)cc(OC)c1OC [Dilazep, dilazep, reference compound]
IFNγ production ([7]; in the presence of 100 µM adenosine): restored | restoration of T cell viability [3, 11]: restored | [3H]adenosine uptake [10]: reduced | restoration of T cell proliferation [1, 11]: restored | levels of UMP, UDP, UTP and CTP (metabolites downstream of UMPS) [2]: increased | levels of carbamoyl aspartate, DHO and orotate [2]: reduced

O=c1ccn([C@@H]2O[C@H](CO)[C@@H](O)[C@H]2O)c(=O)[nH]1 [Uridine, uridine]
pEC50 ([1]; read-out: EC50, rescue of T cell proliferation): 5.96 | effect of the substance on T cell proliferation [1]: did not suppress | restoration of adenosine-mediated inhibition of T cell proliferation [1]: restored | levels of UMP, UDP, UTP and CTP (metabolites downstream of UMPS) [2]: normalized pyrimidine levels

Nc1ccn([C@@H]2O[C@H](CO)[C@@H](O)[C@H]2O)c(=O)n1 [cytidine]
effect of the substance on T cell proliferation [1]: did not suppress | restoration of adenosine-mediated inhibition of T cell proliferation [1]: not observed

Anti-PD-1: anti-PD-1 antibody OPDIVO (nivolumab), Bristol-Myers Squibb [reference compound]
antigen-specific killing by the PBMC population ([6]; in the absence of ATP): did not have a clear effect
